Measured values: ChEMBL document CHEMBL5634142, “Novel thienopyrimidones targeting hepatic and erythrocytic stages of Plasmodium parasites with increased microsomal stability” (Eur J Med Chem, 2023)

Legend:
[1] = Effective permeability of compound at pH 5 incubated for 4 hrs by PAMPA-GIT assay; format: ADME; settings: read-out: Peff
[2] = Solubility of compound in PBS at 1 mg incubated for 10 mins by HPLC analysis; format: physicochemical
[3] = Chromatographic hydrophobicity index, log D of the compound at pH 7.4 by HPLC analysis; format: physicochemical; settings: buffer
[4] = target: Voltage-gated inwardly rectifying potassium channel KCNH2 (Homo sapiens, UniProt Q12809); test: Inhibition of hERG incubated for 4 hrs by fluorescence polarization assay; format: toxicity
Sequence of Voltage-gated inwardly rectifying potassium channel KCNH2 (Q12809 whole entry): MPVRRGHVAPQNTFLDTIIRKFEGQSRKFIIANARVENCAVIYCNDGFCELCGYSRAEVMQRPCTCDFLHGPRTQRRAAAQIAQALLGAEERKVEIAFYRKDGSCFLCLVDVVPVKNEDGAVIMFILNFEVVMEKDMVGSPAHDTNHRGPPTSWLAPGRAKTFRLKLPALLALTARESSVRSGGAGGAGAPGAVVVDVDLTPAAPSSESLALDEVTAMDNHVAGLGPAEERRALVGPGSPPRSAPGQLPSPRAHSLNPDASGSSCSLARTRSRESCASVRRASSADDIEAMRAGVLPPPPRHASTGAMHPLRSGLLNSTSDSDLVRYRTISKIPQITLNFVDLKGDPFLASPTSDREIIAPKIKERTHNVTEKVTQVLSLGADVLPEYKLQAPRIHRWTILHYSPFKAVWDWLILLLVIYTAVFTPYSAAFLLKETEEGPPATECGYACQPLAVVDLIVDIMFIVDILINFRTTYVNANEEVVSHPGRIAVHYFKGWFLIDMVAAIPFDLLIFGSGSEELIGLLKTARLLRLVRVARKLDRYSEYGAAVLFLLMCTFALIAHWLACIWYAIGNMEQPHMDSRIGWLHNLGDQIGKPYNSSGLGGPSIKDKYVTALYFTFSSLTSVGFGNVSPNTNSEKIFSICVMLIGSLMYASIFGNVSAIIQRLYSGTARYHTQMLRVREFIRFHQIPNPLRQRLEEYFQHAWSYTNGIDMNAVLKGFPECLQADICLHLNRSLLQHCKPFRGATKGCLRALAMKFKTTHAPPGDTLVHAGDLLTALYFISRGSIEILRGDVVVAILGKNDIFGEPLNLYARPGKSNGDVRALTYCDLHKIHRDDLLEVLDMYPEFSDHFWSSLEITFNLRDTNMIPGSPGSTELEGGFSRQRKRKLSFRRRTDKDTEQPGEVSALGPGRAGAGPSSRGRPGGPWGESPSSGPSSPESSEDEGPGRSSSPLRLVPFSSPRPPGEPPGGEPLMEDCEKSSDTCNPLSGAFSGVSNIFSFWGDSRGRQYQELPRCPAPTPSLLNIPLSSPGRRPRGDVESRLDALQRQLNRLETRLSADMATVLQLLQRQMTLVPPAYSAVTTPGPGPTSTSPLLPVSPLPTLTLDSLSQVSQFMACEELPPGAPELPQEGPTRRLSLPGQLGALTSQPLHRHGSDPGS

[5] = Effective permeability of compound at pH 7.4 incubated for 4 hrs by PAMPA-GIT assay; format: ADME; settings: read-out: Peff
[6] = Selectivity index, ratio of CC50 for cytotoxicity against human HepG2 cells to EC50 for antiplasmodial activity against erythrocytic stage of chloroquine, pyrimethamine and sulfadoxine resistant Plasmodium falciparum K1 infected in human erythrocytes; format: toxicity, cell-based; settings: read-out: Ratio CC50/EC50
[7] = Cytotoxicity against human HepG2 cells assessed as reduction in cell viability incubated for 72 hrs by MTT assay; format: toxicity, cell-based
[8] = tested on: Plasmodium falciparum; test: Antiplasmodial activity against erythrocytic stage of chloroquine, pyrimethamine and sulfadoxine resistant Plasmodium falciparum K1 infected in human erythrocytes assessed as reduction in parasite growth incubated for 72 hrs by SYBR green I fluorescence based spectrophotometric analysis; format: functional, organism-based; settings: K1, Erythrocyte
[9] = tested on: Plasmodium berghei; test: Antiplasmodial activity against hepatic stage of Plasmodium berghei ANKA sporozoites infected in Cynomolgous monkey hepatocytes harboring Simian virus assessed as reduction in parasite growth administered for 3 hrs followed by replacement with fresh medium containing compound for every 24 hrs by DAPI staining based analysis; format: functional, organism-based; settings: Hepatocyte
[10] = Cytotoxicity against Cynomolgous monkey hepatocytes harboring Simian virus assessed as reduction in cell viability administered for 3 hrs followed by replacement with fresh medium containing compound for every 24 hrs by DAPI staining based analysis; format: toxicity, Macaca fascicularis, Hepatocyte; settings: cynomolgus monkey
[11] = Stability in CD-1 mouse microsomes assessed as half-life in presence of NADP; format: ADME, Microsome
[12] = Stability in CD-1 mouse microsomes assessed as intrinsic clearance measured upto 40 mins in presence of NADP; format: ADME, Microsome
[13] = Solubility of compound in DMSO; format: physicochemical

Row | Structure (SMILES) | selectivity ratio [6] | CC50 at 72 h [7] [µM] | EC50 [8] [µM] | EC50 [9] [µM] | CC50 at 3 h [10] [µM] | further results
1 | Cc1ccc(-c2cc3nc(NC4CCC4)[nH]c(=O)c3s2)cc1.Cl | – | – | – | – | – | Papp at 4 h [1]: 18.1 ×10⁻⁶ cm/s; solubility at 10 min [2]: 1.4 µM; chromatographic logD [3]: 3.16; IC50 [4]: > 100 µM; Papp at 4 h [5]: 4.36 ×10⁻⁶ cm/s
2 | CCn1c(NC(C)(C)C)nc2cc(-c3ccc(C)cc3)sc2c1=O | 1.4 | 5.8 | > 12.5 | – | – | –
3 | Cc1ccc(-c2cc3nc(N)n(CCCN(C)C)c(=O)c3s2)cc1 | 0.42 | 4.1 | 9.8 | – | – | –
4 | Cc1ccc(-c2cc3nc(NC4CCCCC4)[nH]c(=O)c3s2)cc1 | – | > 12.5 | > 12.5 | – | – | –
5 | Cc1ccc(-c2cc3nc(N4CCCCC4)[nH]c(=O)c3s2)cc1 | – | > 3.1 | > 25 | – | – | –
6 | Cc1ccc(-c2cc3nc(NC4CCCC4)[nH]c(=O)c3s2)cc1 | > 5.6 | > 7.8 | 1.4 | 10.5 | > 100 | half-life [11]: 38 min; microsomal CLint [12]: 58 µL/min/mg
7 | Cc1ccc(-c2cc3nc(NC(C)(C)C(F)(F)F)[nH]c(=O)c3s2)cc1 | > 10 | 23.9 | > 10 | – | – | –
8 | C[C@H]1c2cccc(O)c2C(=O)C2=C(O)[C@]3(O)C(=O)C(C(N)=O)=C(O)[C@@H](N(C)C)[C@@H]3[C@@H](O)[C@@H]21 [DOXYCYCLINE ANHYDROUS] | 4 | – | – | – | – | –
9 | [2H]C([2H])([2H])C(Nc1nc2cc(-c3ccc(C)cc3)sc2c(=O)[nH]1)(C([2H])([2H])[2H])C([2H])([2H])[2H] | 149 | 17.9 | 0.1 | 13.7 | > 100 | half-life [11]: 8.5 min; microsomal CLint [12]: 209 µL/min/mg
10 | Cc1ccc(-c2cc3nc(NC(C)C)[nH]c(=O)c3s2)cc1 | – | – | – | 55.6 | > 200 | half-life [11]: 11 min; microsomal CLint [12]: 214 µL/min/mg
11 | Cc1ccc(-c2cc3nc(NC4CC4)[nH]c(=O)c3s2)cc1 | 4.4 | 4 | 0.9 | 5.5 | > 100 | half-life [11]: 15 min; microsomal CLint [12]: 136 µL/min/mg
12 | Cc1ccc(-c2cc3nc(C(C)(C)C)[nH]c(=O)c3s2)cc1 | – | – | – | – | – | IC50 [4]: > 100 µM
13 | Cc1ccc(-c2cc3nc(NC4CCC4)[nH]c(=O)c3s2)cc1 | 12.7 | 14 | 1.1 | 11.2 | > 100 | half-life [11]: 29 min; microsomal CLint [12]: 78 µL/min/mg
14 | Cc1ccc(-c2cc3nc(NC(C)(C)C)n(C(C)C)c(=O)c3s2)cc1 | > 0.9 | > 3.9 | 4.2 | – | – | –
15 | [2H]C([2H])([2H])C(Nc1nc2cc(-c3ccc(C)cc3)sc2c(=O)[nH]1)C([2H])([2H])[2H] | > 50 | > 10 | 0.2 | 15.9 | > 100 | half-life [11]: 11 min; microsomal CLint [12]: 214 µL/min/mg
16 | Cc1ccc(-c2cc3nc(NC(C)(C)C)n(-c4ccccc4)c(=O)c3s2)cc1 | – | > 3.1 | > 12.5 | – | – | –
17 | Cc1ccc(-c2cc3nc(N4CCN(C)CC4)[nH]c(=O)c3s2)cc1 | < 0.3 | 8.7 | > 25 | – | – | –
18 | Cc1ccc(-c2cc3nc(N)n(C)c(=O)c3s2)cc1 | – | > 6.2 | > 25 | – | – | –
19 | Cc1ccc(-c2cc3nc(N[C@H]4CCNC4)[nH]c(=O)c3s2)cc1 | < 0.4 | 13.2 | > 31.2 | – | – | –
20 | Cc1ccc(-c2cc3nc(N4CCC4)[nH]c(=O)c3s2)cc1 | – | – | – | – | – | solubility [13]: Insoluble
21 | Cc1ccc(-c2cc3nc(N4CCCC4)[nH]c(=O)c3s2)cc1 | > 2.1 | > 3.1 | 1.4 | > 100 | > 200 | –
22 | Cc1ccc(-c2cc3nc(N4CCOCC4)[nH]c(=O)c3s2)cc1 | < 0.4 | 3.6 | > 10 | – | – | –
23 | COc1cc(NC(C)CCCN)c2ncccc2c1 (stereo not drawn) [PRIMAQUINE] | – | – | – | 7.26 | > 50 | –
